Source: patent US20250032477A1, “COMPOUNDS, PHARMACEUTICAL COMPOSITIONS, AND METHODS FOR THE TREATMENT, PREVENTION, OR MANAGEMENT OF HYPERPROLIFERATIVE DISORDERS” (VINCERX PHARMA GMBH, priority 2021, published 2025)
Read-outs that look alike come from different tables or passages of the source.

How the values were obtained:
786-O = experiment: Cytotoxicity in vitro in the presence and absence of elastase (MTT); type: cell-based, human
How it was run: (§1)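 Cells seeded 24 h beforehand, then treated in triplicate with compound (10^−5 to 10^−13 M) alone or with 10 nM elastase for 72 h at 37 °C. Proliferation measured by MTT (4 h reagent, overnight lysis, absorbance 570 nm), normalised to untreated cells.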

NCI H292 = experiment: as above; type: cell-based, human
How it was run: as §1

HT29 = experiment: as above; type: cell-based, human
How it was run: as §1

SUM149 = experiment: as above; type: cell-based
How it was run: as §1

[1] = type: physicochemical
Description: pH dependent ring-opening by hydrolysis of the lactone ring is an issue in the camptothecin class of agents. It is a pH dependent equilibrium between closed lactone form and ring-opened hydroxy acid form which is shifted to the closed ring at acidic pH and to the opened form under basic conditions. Only the lactone form is active. […] The closed and hydrolyzed open forms are differentiable by mass using the LC-MS methods described herein.
Method for acidic eluent: System MS: Waters TOF instrument; System UPLC: Waters Acquity I-CLASS; Column: Waters Acquity UPLC HSS T3 1.8 μm 50×1 mm; Eluent A: 1 L Water+0.100 ml 99% Formic acid (pH 3.4); Eluent B: 1 L Acetonitrile+0.100 ml 99% Formic acid; Gradient: 0.0 min 90% A→1.2 min 5% A→2.0 min 5% A Oven: 50° C.; Flow: 0.40 ml/min; UV-Detection: 210 nm.
Method for basic eluent: System MS: Thermo Scientific FT-MS; System UHPLC+: Thermo Scientific UltiMate 3000; Column: Waters, BEH c18 1.7μ, 2.1×50 mm, Eluent A: 1 L Water+1.0 mL (25% Ammonia) (pH of eluent A=10.2); Eluent B: 1 L Acetonitrile; Gradient: 0.0 min 5% B→2.5 min 95% B→3.5 min 95% B; Oven: 50° C.; Flow: 0.90 ml/min; UV-Detection: 210 nm/Optimum Integration Path 210-300 nm.

Row | SMILES | IC50 (786-O; read-out: 786-O IC50 w elastase) [nM] | IC50 (786-O; read-out: 786-O IC50 w/o) [nM] | IC50 (NCI H292; read-out: NCI H292 IC 50 w elastase) [nM] | IC50 (NCI H292; read-out: NCI H292 IC 50 w/o) [nM] | IC50 (HT29; read-out: HT29 IC50 w elastase) [nM] | IC50 (HT29; read-out: HT29 IC50 w/o) [nM] | IC50 (SUM149; read-out: SUM149 IC50 w elastase) [nM] | IC50 (SUM149; read-out: SUM149 IC50 w/o) [nM] | Lactone ring form detected by LC-MS, acidic eluent ([1]; pH 3.4) | IC50 (786-O; 786-O cells, with 10 nM elastase, 72 h, MTT, read-out: 786-O IC50 w elastase) [nM] | IC50 (786-O; 786-O cells, without elastase, 72 h, MTT, read-out: 786-O IC50 w/o) [nM] | IC50 (NCI H292; NCI H292 cells, with 10 nM elastase, 72 h, MTT, read-out: NCI H292 IC 50 w elastase) [nM] | IC50 (NCI H292; NCI H292 cells, without elastase, 72 h, MTT, read-out: NCI H292 IC 50 w/o) [nM] | IC50 (HT29; HT29 cells, with 10 nM elastase, 72 h, MTT, read-out: HT29 IC50 w elastase) [nM] | IC50 (HT29; HT29 cells, without elastase, 72 h, MTT, read-out: HT29 IC50 w/o) [nM] | IC50 (SUM149; SUM149 cells, with 10 nM elastase, 72 h, MTT, read-out: SUM149 IC50 w elastase) [nM] | IC50 (SUM149; SUM149 cells, without elastase, 72 h, MTT, read-out: SUM149 IC50 w/o) [nM] | Lactone ring form detected by LC-MS, acidic eluent ([1]; acidic eluent (pH 3.4), UV and mass detection) | Lactone ring form detected by LC-MS, basic eluent ([1]; basic eluent (pH of eluent A=10.2), UV and mass detection)
1 | CCCNC(=O)Nc1cccc(S(=O)(=O)Nc2cccc([C@@H](CC(=O)O)NC(=O)Nc3ccc(NC(=O)NCCOCCOCCOCCC(=O)N[C@@H](CC(=O)O)C(=O)N4CCC[C@H]4C(=O)N[C@H](C(=O)O[C@]4(CC)C(=O)OCc5c4cc4n(c5=O)Cc5c-4nc4cc(F)c(C)c6c4c5[C@@H](N)CC6)C(C)C)cc3)c2)c1 [Compound 4, (1S,9S)-1-amino-9-ethyl-5-fluoro-4-methyl-10,13-dioxo-2,3,9,10,13,15-hexahydro-1H,12H-benzo[de]pyrano[3′,4′:6,7]indolizino[1,2-b]quinolin-9-yl N-(14-{4-[({(1R)-2-carboxy-1-[3-({3-[(propylcarbamoyl)amino]benzene-1-sulfonyl}amino)phenyl]ethyl}carbamoyl)amino]anilino}-14-oxo-4,7,10-trioxa-13-azatetradecanan-1-oyl)-L-alpha-aspartyl-L-prolyl-L-valinate] | 0.01 to 0.1 | 1.1 to 10 | 0.01 to 0.1 | 1.1 to 10 | 0.01 to 0.1 | 10 to 100 | < 0.01 | 1.1 to 10 | only the closed form (301) was detected | – | – | – | – | – | – | – | – | – | –
2 | CCCNC(=O)Nc1cccc(S(=O)(=O)Nc2cccc([C@@H](CC(=O)[O-])NC(=O)Nc3ccc(NC(=O)NCCOCCOCCOCCC(=O)N[C@@H](CC(=O)[O-])C(=O)N4CCC[C@H]4C(=O)N[C@H](C(=O)O[C@]4(CC)C(=O)OCc5c4cc4n(c5=O)Cc5c-4nc4cc(F)c(C)c6c4c5[C@@H](NC(C)=O)CC6)C(C)C)cc3)c2)c1.[Na+].[Na+] [Compound 2, disodium (1S,9S)-1-acetamido-9-ethyl-5-fluoro-4-methyl-10,13-dioxo-2,3,9,10,13,15-hexahydro-1H,12H-benzo[de]pyrano[3′,4′:6,7]indolizino[1,2-b]quinolin-9-yl 1-[(2S)-2-(carboxylatomethyl)-17-{4-[({(1R)-2-carboxylato-1-[3-({3-[(propylcarbamoyl)amino]benzene-1-sulfonyl}amino)phenyl]ethyl}carbamoyl)amino]anilino}-4,17-dioxo-7,10,13-trioxa-3,16-diazaheptadecanan-1-oyl]-L-prolyl-L-valinate] | – | – | – | – | – | – | – | – | – | 0.01 to 0.1 | 10 to 100 | 0.1 to 1 | 1.1 to 10 | 0.1 to 1 | > 100 | 0.01 to 0.1 | 1.1 to 10 | only the closed form (201) | No open form (203) was detected
